From patent US20250362286A1, “SCREENING MODELS AND METHODS OF CANCER TREATMENT” (The Regents of the University of California, priority 2022, published 2025)

Experiments:
Type in all cases: cell-based
MDA-MB-231s = test: CD24 mRNA expression in 2D (differentiation screening); conditions: 200 μM, 48h, FCthreshold=2.0
Experimental: FIG. 3H depicts relative CD24 mRNA expression. CD24 expression was an early indicator of response to ISX9 in 2D across several TNBC cell lines. Treatment screening of several different TNBC cell lines with ISX9 in 2D for 48h yielded four responders, as determined by CD24 mRNA expression (FIG. 3H).
These analogs were screened for their potential to differentiate MDA-MB-231s, yielding at least one new hit, CR-1 (˜98% similarity), which induced a ˜6-fold upregulation of CD24 at a concentration of 200 μM at 48h in 2D (FIG. 6).

MDAs [1] = test: invasion distances of MDAs in HD Col1 treated with GSIs; conditions: HD Col1, vs vehicle (0.1% DMSO)
Text: Therefore, this example assessed what effect GSIs would have on MDAs in HD Col1. […] FIG. 3C depicts invasion distances of MDAs in HD Col1 treated with vehicle (0.1% DMSO) or GSIs DAPT and MK0752.

CSCs = test: phenotypic effects in CSCs (MOA controls); conditions: compared to ISX9 (data not shown)
Text: (§1) Therefore, to begin to characterize the MOA of ISX9 in CSCs, it was first determined whether ISX9 treatment of CSCs triggered Ca^2+ signaling. MDAs were transduced to express the genetically encoded Ca^2+ sensor GCamp6f and treated with vehicle, ionomycin (positive control), or ISX9 (data not shown). […] FIG. 5 depicts Ca^2+ response of MDAs to ISX9 treatment. Scale bar=250 μm.

MDA-MB-231 cells = test: western blot of acetylation of histones H3 and H4; conditions: 2D- and 3D-treated cells, 24 hours
Text: Also identified was the fact that a similar increase in acetylation was found in patient-derived organoid models. […] Acetylation and deactylation of histones H3 and H4 are typically orchestrated by Histone Acetyltransferases (HATs), including the several HAT subfamilies, as well as HDACs (see, e.g., Marmorstein, R. et al. Cold Spring Harb. Perspect. Biol. 6, a018762 (2014)). Not wishing to be bound by any particular theory, Isx9 may bind directly to HATs and/or HDACs in order to activate histone acetylation and drive induction of MET and/or CSC differentiation.

MDAs [2] = test: Ca2+ signaling with genetically encoded Ca2+ sensor GCamp6f; conditions: GCamp6f-expressing MDAs (data not shown)
Text: as §1

SMILES: CC(C)NC(=O)c1cc(-c2cccs2)on1 [CR-1]
- upregulation of CD24 (MDA-MB-231s): ~6 fold

SMILES: C[C@H](NC(=O)Cc1cc(F)cc(F)c1)C(=O)N[C@H](C(=O)OC(C)(C)C)c1ccccc1 [DAPT]
- inhibition of the CINP / tumor cell invasion (MDAs [1]): did not inhibit the CINP, but rather slightly promoted tumor cell invasion

SMILES: O=C(O)CC[C@H]1CC[C@@](c2cc(F)ccc2F)(S(=O)(=O)c2ccc(Cl)cc2)CC1 [MK0752]
- inhibition of the CINP / tumor cell invasion (MDAs [1]): did not inhibit the CINP, but rather slightly promoted tumor cell invasion

SMILES: CN[C@H](CC(=O)O)C(=O)O [NMDA, N-Methyl-D-aspartate]
- phenotypic effects (CSCs): no phenotypic effects

SMILES: CC(/C=C/C(=O)NO)=C\[C@@H](C)C(=O)c1ccc(N(C)C)cc1 [TSA, reference compound]
- acetylation of histones H3 and H4 (MDA-MB-231 cells): similarly induced H3/H4 acetylation

SMILES: C[C@H](CCC(=O)O)C[C@H](C)C[C@H](C)C(=O)/C=C(\O)[C@H](C)C[C@H](C)C/C=C/[C@@H](C)[C@@H](O)[C@@H](C)[C@@H](O)C[C@@H]1CC[C@@](C)([C@H]2CC[C@@](C)([C@@H](C)O)O2)O1 [ionomycin, reference compound]
- Ca2+ signal (MDAs [2]): observed
